From US11052087B2, “Anti-HIV compounds” (priority 2018, dated 2021)
≈ marks a conversion by molar mass, not a printed value. Counter-ions that a name gives are not always drawn. Like-named read-outs stand apart in the source and are kept apart here.

Tests used:
[1] = Liver microsomal stability (rat); format: in vitro ADME; conditions: rat liver microsomes 0.5 mg/mL, 1 μM compound, NADPH-regenerating system, 37° C.
Experimental: (§1) Liver Microsomal Stability Protocol
(§2) Test compounds and one control compound (verapamil) were tested in 3 different species in duplicate sets.
(§3) Test compound concentration: 1 μM; Protein concentration: 0.5 mg/mL (for rat and human liver microsomes); Cofactor: NADPH-Regenerating system (NRS) solution. Time-points: 2, 12, 25, 45, and 65 minutes.
(§4) Reaction composition (in each incubation well) contains:
(§5) At an incubation temperature of 37° C., the reaction was started with addition of NADPH Regeneration System, at each time point, 25 μL of the reaction mixture was removed and added to a plate with 225 μL quenching solution (50% MeOH, 25% ACN, 25% H2O, and 200 nM labetalol as internal standard). After plates were vortexed, they were centrifuged for 30 minutes to remove proteins. About 100 μL supernatant was removed to a new plate and diluted with 150 μL water. About 20 μL of the mixture was injected into an LC/MS/MS system to monitor the compound's response. In vitro measured t1/2 was used to calculate Clint values.

[2] = tested on: HIV-1 (IIIB) in MT-4 cells; assay: MT-4 HIV Assay; format: cell-based; conditions: Human immunodeficiency virus 1, MT4, 120 h; HIV-1 (IIIB) replication in MT-4 cells, 5 days incubation, Cell Titer Glo; read-out: EC50
Experimental: Compounds were tested in a high-throughput 384-well assay format for their ability to inhibit the replication of HIV-1 (IIIB) in MT-4 cells. Compounds were serially diluted (1:3) in DMSO on 384-well polypropylene plates and further diluted 200-fold into complete RPMI media (10% FBS, 1% P/S) using the Biotek Micro Flow and Agilent ECHO acoustic dispenser. Each plate contained up to 8 test compounds, with negative (No Drug Control) and 5 μM AZT positive controls. MT-4 cells were pre-infected with 10 μL of either RPMI (mock-infected) or a fresh 1:250 dilution of an HIV-1 (IIIB) concentrated virus stock. Infected and uninfected MT-4 cells were further diluted in complete RPMI media and added to each plate using a Micro Flow dispenser. After 5 days incubation in a humidified and temperature controlled incubator (37° C.), Cell Titer Glo (Promega) was added to the assay plates to quantify the amount of luciferase. EC50 values were defined as the compound concentration that causes a 50% decrease in luminescence signal, and were calculated using a sigmoidal dose-response model to generate curve fits.

[3] = Liver microsomal stability (human); format: in vitro ADME; conditions: human liver microsomes 0.5 mg/mL, 1 μM compound, NADPH-regenerating system, 37° C.
Experimental: as §1, §2, §3, §4, §5

[4] = Kinetic Solubility Analysis (CLND); format: physicochemical; conditions: 26 °C, kinetic from dmso stock
Experimental: Kinetic Solubility Analysis (CLND) Buffer Preparation:
0.1N HCl: Hydrochloric acid, 0.1N standardized solution.
1×PBS, 7.4: Phosphate Buffered Saline solution 10×, PBS 50 mL was added to approximately 450 mL HPLC grade H2O. The volume of the solution was then adjusted to 500 mL for a total dilution factor of 1:10 and a final PBS concentration of IX.
Kinetic Solubility from DMSO Stocks:
The final DMSO concentration is 1.0% and maximum theoretical compound concentration is 100 μM (assuming stock concentration of 10 mM). The filter plate was sealed. […] The collection plate was sealed for analysis. Filtrates were injected into the nitrogen detector for quantification.
The equimolar nitrogen response of the detector was calibrated using standards which spanned the dynamic range of the instrument from […] nitrogen. The filtrates were quantified with respect to this calibration curve. The calculated solubility values were corrected for background nitrogen present in the DMSO and the media used to prepare the samples.

[5] = 0.1N HCl, pH 1, simulated gastric fluid, read-out: Solubility, HCl, pH 1.0, RT
[6] = PBS, pH 7.4, aqueous buffer, read-out: Solubility, PBS, pH 7.4, RT

| SMILES | Rat. Pred. Cl. (L/H/kg) [1] [L/H/kg] | EC50 [2] [µM] | Human Pred Cl. (L/H/kg) [3] [L/H/kg] | solubility at 24 h [4, 5] [µM] | solubility at 24 h [4, 6] [µM] |
| --- | --- | --- | --- | --- | --- |
| COC(=O)N[C@H](C(=O)N[C@@H](Cc1ccc(C#Cc2cnc(N3CC4CCC(C3)N4C3COC3)nc2)cc1)[C@H](CN(Cc1c(F)cc(-c2ccn(C(F)F)n2)cc1F)NC(=O)[C@@H](NC(=O)OC)C(C)(C)C(F)(F)F)OC=O)C(C)(C)C(F)(F)F [Example 1, (5S,10S,11S,14S)-8-(4-(1-(difluoromethyl)-1H-pyrazol-3-yl)-2,6-difluorobenzyl)-11-(4-((2-(8-(oxetan-3-yl)-3,8-diazabicyclo[3.2.1]octan-3-yl)pyrimidin-5-yl)ethynyl)benzyl)-3,6,13,16-tetraoxo-5,14-bis(1,1,1-trifluoro-2-methylpropan-2-yl)-2,17-dioxa-4,7,8,12,15-pentaazaoctadecan-10-yl formate] | <0.4 | 0.00462 | 0.37 | 20 | < 1 |
| COC(=O)N[C@H](C(=O)N[C@@H](Cc1ccc(C#Cc2cnc(N3CC4CCC(C3)N4C3COC3)nc2)cc1)[C@H](CN(Cc1c(F)cc(-c2ccn(C(F)F)n2)cc1F)NC(=O)[C@@H](NC(=O)OC)C(C)(C)C(F)(F)F)OC(=O)c1cccnc1)C(C)(C)C(F)(F)F [Example 5, (5S,10S,11S,14S)-8-(4-(1-(difluoromethyl)-1H-pyrazol-3-yl)-2,6-difluorobenzyl)-11-(4-((2-(8-(oxetan-3-yl)-3,8-diazabicyclo[3.2.1]octan-3-yl)pyrimidin-5-yl)ethynyl)benzyl)-3,6,13,16-tetraoxo-5,14-bis(1,1,1-trifluoro-2-methylpropan-2-yl)-2,17-dioxa-4,7,8,12,15-pentaazaoctadecan-10-yl nicotinate] | 0.58 | 1.14 | 0.28 | 89.2 (≈ 112 µg/mL) | < 1 |
| COC(=O)N[C@H](C(=O)N[C@@H](Cc1ccc(C#Cc2cnc(N3CC4CCC(C3)N4C3COC3)nc2)cc1)[C@H](CN(Cc1c(F)cc(-c2ccn(C(F)F)n2)cc1F)NC(=O)[C@@H](NC(=O)OC)C(C)(C)C(F)(F)F)OC(=O)[C@@H](N)C(C)C)C(C)(C)C(F)(F)F [Example 8, (2S,3S)-1-(1-(4-(1-(difluoromethyl)-1H-pyrazol-3-yl)-2,6-difluorobenzyl)-2-((S)-4,4,4-trifluoro-2-((methoxycarbonyl)amino)-3,3-dimethylbutanoyl)hydrazinyl)-4-(4-((2-(8-(oxetan-3-yl)-3,8-diazabicyclo[3.2.1]octan-3-yl)pyrimidin-5-yl)ethynyl)phenyl)-3-((S)-4,4,4-trifluoro-2-((methoxycarbonyl)amino)-3,3-dimethylbutanamido)butan-2-yl L-valinate] |  | 0.102 |  | 90 (≈ 113 µg/mL) | < 1 |
| COC(=O)N[C@H](C(=O)N[C@@H](Cc1ccc(C#Cc2cnc(N3CC4CCC(C3)N4C3COC3)nc2)cc1)[C@H](CN(Cc1c(F)cc(-c2ccn(C(F)F)n2)cc1F)NC(=O)[C@@H](NC(=O)OC)C(C)(C)C(F)(F)F)OC(=O)CCCN1CCOCC1)C(C)(C)C(F)(F)F [Example 2, (5S,10S,11S,14S)-8-(4-(1-(difluoromethyl)-1H-pyrazol-3-yl)-2,6-difluorobenzyl)-11-(4-((2-(8-(oxetan-3-yl)-3,8-diazabicyclo[3.2.1]octan-3-yl)pyrimidin-5-yl)ethynyl)benzyl)-3,6,13,16-tetraoxo-5,14-bis(1,1,1-trifluoro-2-methylpropan-2-yl)-2,17-dioxa-4,7,8,12,15-pentaazaoctadecan-10-yl 4-morpholinobutanoate] | 0.84 | 0.0566 | 0.53 | 81 (≈ 106 µg/mL) | < 1 |
| COC(=O)N[C@H](C(=O)N[C@@H](Cc1ccc(C#Cc2cnc(N3CC4CCC(C3)N4C3COC3)nc2)cc1)[C@H](CN(Cc1c(F)cc(-c2ccn(C(F)F)n2)cc1F)NC(=O)[C@@H](NC(=O)OC)C(C)(C)C(F)(F)F)OP(=O)(O)O)C(C)(C)C(F)(F)F [Example 12, methyl ((5S,10S,11S,14S)-8-(4-(1-(difluoromethyl)-1H-pyrazol-3-yl)-2,6-difluorobenzyl)-16,16,16-trifluoro-15,15-dimethyl-11-(4-((2-(8-(oxetan-3-yl)-3,8-diazabicyclo[3.2.1]octan-3-yl)pyrimidin-5-yl)ethynyl)benzyl)-3,6,13-trioxo-10-(phosphonooxy)-5-(1,1,1-trifluoro-2-methylpropan-2-yl)-2-oxa-4,7,8,12-tetraazahexadecan-14-yl)carbamate] | 0.91 |  | 0.47 | 13.1 (≈ 16.2 µg/mL) | 84.6 (≈ 105 µg/mL) |
| COC(=O)N[C@H](C(=O)N[C@@H](Cc1ccc(C#Cc2cnc(N3CC4CCC(C3)N4C3COC3)nc2)cc1)[C@H](CN(Cc1c(F)cc(-c2ccn(C(F)F)n2)cc1F)NC(=O)[C@@H](NC(=O)OC)C(C)(C)C(F)(F)F)OC(=O)[C@H](C(C)C)N(C)C)C(C)(C)C(F)(F)F [Example 4, (2S,3S)-1-(1-(4-(1-(difluoromethyl)-1H-pyrazol-3-yl)-2,6-difluorobenzyl)-2-((S)-4,4,4-trifluoro-2-((methoxycarbonyl)amino)-3,3-dimethylbutanoyl)hydrazinyl)-4-(4-((2-(8-(oxetan-3-yl)-3,8-diazabicyclo[3.2.1]octan-3-yl)pyrimidin-5-yl)ethynyl)phenyl)-3-((S)-4,4,4-trifluoro-2-((methoxycarbonyl)amino)-3,3-dimethylbutanamido)butan-2-yl dimethyl-L-valinate] |  | 5.71 |  | 99.2 (≈ 127 µg/mL) | < 1 |
| COC(=O)N[C@H](C(=O)N[C@@H](Cc1ccc(C#Cc2cnc(N3CC4CCC(C3)N4C3COC3)nc2)cc1)[C@H](CN(Cc1c(F)cc(-c2ccn(C(F)F)n2)cc1F)NC(=O)[C@@H](NC(=O)OC)C(C)(C)C(F)(F)F)OC(=O)c1ccccn1)C(C)(C)C(F)(F)F [Example 6, (5S,10S,11S,14S)-8-(4-(1-(difluoromethyl)-1H-pyrazol-3-yl)-2,6-difluorobenzyl)-11-(4-((2-(8-(oxetan-3-yl)-3,8-diazabicyclo[3.2.1]octan-3-yl)pyrimidin-5-yl)ethynyl)benzyl)-3,6,13,16-tetraoxo-5,14-bis(1,1,1-trifluoro-2-methylpropan-2-yl)-2,17-dioxa-4,7,8,12,15-pentaazaoctadecan-10-yl picolinate] | <0.4 | 0.278 | 0.29 | 38.5 (≈ 48.6 µg/mL) | < 1 |
| COC(=O)N[C@H](C(=O)N[C@@H](Cc1ccc(C#Cc2cnc(N3CC4CCC(C3)N4C3COC3)nc2)cc1)[C@H](CN(Cc1c(F)cc(-c2ccn(C(F)F)n2)cc1F)NC(=O)[C@@H](NC(=O)OC)C(C)(C)C(F)(F)F)OC(C)=O)C(C)(C)C(F)(F)F [Example 3, (5S,10S,11S,14S)-8-(4-(1-(difluoromethyl)-1H-pyrazol-3-yl)-2,6-difluorobenzyl)-11-(4-((2-(8-(oxetan-3-yl)-3,8-diazabicyclo[3.2.1]octan-3-yl)pyrimidin-5-yl)ethynyl)benzyl)-3,6,13,16-tetraoxo-5,14-bis(1,1,1-trifluoro-2-methylpropan-2-yl)-2,17-dioxa-4,7,8,12,15-pentaazaoctadecan-10-yl acetate] |  | 0.603 |  | 25.2 | < 1 |
